Results taken from the supplement of paper PMC13386468.

How the values were obtained:
Settings in all cases: assay detail: Kinobeads competition in P. falciparum blood-stage lysate
UniProt Q9U0K8 = assay: apparent dissociation constant (Kd app) from Kinobeads competition
UniProt O77344 = assay: as above
UniProt C6KSZ6 = assay: as above
UniProt C0H4R8 = assay: as above
UniProt Q8I5D4 = assay: as above
UniProt Q8IAZ3 = assay: as above
UniProt Q8I5H9 = assay: as above
UniProt Q8IE41 = assay: as above
UniProt Q8IJR8 = assay: as above
UniProt Q8I535 = assay: as above
A0A144A0U7 = assay: as above
UniProt Q8IIW6 = assay: as above
UniProt Q8I5E3 = assay: as above
UniProt Q8I442 = assay: as above
UniProt C6KSQ1 = assay: as above
UniProt Q8IEL1 = assay: as above
UniProt Q7KQK0 = assay: as above
UniProt Q8IAM4 = assay: as above
UniProt Q8IKQ9 = assay: as above
UniProt Q8IIK2 = assay: IC50 for competition of protein binding to Kinobeads
UniProt Q8IE50 = assay: as above
UniProt Q8I463 = assay: as above
UniProt Q8IAR7 = assay: as above
UniProt Q8IAW5 = assay: as above
UniProt O77375 = assay: as above
UniProt C6KSX2 = assay: as above
UniProt Q8I3F1 = assay: as above
UniProt Q8I5S4 = assay: as above
UniProt Q8ILA4 = assay: as above
UniProt Q8I3J5 = assay: as above
UniProt Q8ILZ3 = assay: as above
UniProt Q8IDZ2 = assay: as above
UniProt C0H5J9 = assay: as above
UniProt Q8IDZ9 = assay: as above
UniProt C6KTC6 = assay: as above
UniProt Q8IL08 = assay: as above
UniProt Q8IJ99 = assay: as above
UniProt Q8IDB8 = assay: as above
UniProt Q8IBU2 = assay: as above
UniProt Q8I388 = assay: as above
UniProt Q8I5K4 = assay: as above
UniProt Q8I5C6 = assay: as above
UniProt Q8IJZ9 = assay: as above
UniProt Q8ILW9 = assay: as above
Sequence of UniProt Q8ILW9 (Q8ILW9 whole entry): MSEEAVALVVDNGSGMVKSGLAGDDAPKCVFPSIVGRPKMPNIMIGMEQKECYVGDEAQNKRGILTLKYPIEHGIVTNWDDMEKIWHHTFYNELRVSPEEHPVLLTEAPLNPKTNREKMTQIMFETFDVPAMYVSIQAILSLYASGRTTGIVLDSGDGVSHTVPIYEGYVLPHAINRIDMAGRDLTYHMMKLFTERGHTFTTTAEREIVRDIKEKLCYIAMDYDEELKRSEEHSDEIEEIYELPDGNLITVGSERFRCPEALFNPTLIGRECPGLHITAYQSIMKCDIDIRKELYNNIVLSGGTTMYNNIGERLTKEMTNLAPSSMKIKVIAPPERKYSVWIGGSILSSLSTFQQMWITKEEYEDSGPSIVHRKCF

UniProt Q8I2V4 = assay: as above
UniProt C0H570 = assay: as above
UniProt Q8I534 = assay: as above
UniProt Q8IJE1 = assay: as above
UniProt Q8IJW4 = assay: as above
UniProt Q8IIC9 = assay: as above
UniProt Q8IKH8 = assay: as above
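Wherever IC50 is given: native unpurified kinases from lysate captured on beads bearing immobilized kinase inhibitors, with bead-bound kinases quantified by mass spectrometry across compound doses.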

Question: How did the Kd (UniProt Q9U0K8) turn out when O=c1[nH]c2ccc(Cl)cc2c(NC2CN3CCC2CC3)c1-c1nc2ccccc2[nH]1 (stereo unspecified) [CHIR-124] was run?
Answer: 4.29 µM

Question: What about the Kd (UniProt O77344) of the same molecule?
Answer: 1.28 µM

Question: And the Kd (UniProt C6KSZ6)?
Answer: 1.4 µM

Question: And the Kd (UniProt C0H4R8)?
Answer: 4.84 µM

Question: What about the Kd (UniProt Q8I5D4) of the same molecule?
Answer: 5.65 µM

Question: And the Kd (UniProt Q8IAZ3)?
Answer: 9.02 µM

Question: And the Kd (UniProt Q8I5H9)?
Answer: 10.3 µM

Question: What about the Kd (UniProt Q8IE41) of the same molecule?
Answer: 0.239 µM

Question: And the Kd (UniProt Q8IJR8)?
Answer: 0.314 µM

Question: And the Kd (UniProt Q8I535)?
Answer: 0.0455 µM

Question: What about the Kd (A0A144A0U7) of the same molecule?
Answer: 7.53 µM

Question: And the Kd (UniProt Q8IIW6)?
Answer: 0.181 µM

Question: And the Kd (UniProt Q8I5E3)?
Answer: 7.57 µM

Question: What about the Kd (UniProt Q8I442) of the same molecule?
Answer: 7.1 µM

Question: And the Kd (UniProt C6KSQ1)?
Answer: 0.168 µM

Question: And the Kd (UniProt Q8IEL1)?
Answer: 1.9 µM

Question: What about the Kd (UniProt Q7KQK0) of the same molecule?
Answer: 0.621 µM

Question: What about the Kd (UniProt Q8IAM4) of the same molecule?
Answer: 7.66 µM

Question: What about the Kd (UniProt Q8IKQ9) of the same molecule?
Answer: 15.3 µM

Question: What about the IC50 (UniProt Q8IIK2) of the same molecule?
Answer: > 20 µM

Question: What about the IC50 (UniProt Q8IE50) of the same molecule?
Answer: > 20 µM

Question: And the IC50 (UniProt Q8I463)?
Answer: > 20 µM

Question: What about the IC50 (UniProt Q8IAR7) of the same molecule?
Answer: > 20 µM

Question: And the IC50 (UniProt Q8IAW5)?
Answer: > 20 µM

Question: And the IC50 (UniProt O77375)?
Answer: > 20 µM

Question: What about the IC50 (UniProt C6KSX2) of the same molecule?
Answer: > 20 µM

Question: What about the IC50 (UniProt Q8I3F1) of the same molecule?
Answer: > 20 µM

Question: And the IC50 (UniProt Q8I5S4)?
Answer: > 20 µM

Question: What about the IC50 (UniProt Q8ILA4) of the same molecule?
Answer: > 20 µM

Question: What about the IC50 (UniProt Q8I3J5) of the same molecule?
Answer: > 20 µM

Question: What about the IC50 (UniProt Q8ILZ3) of the same molecule?
Answer: > 20 µM

Question: What about the IC50 (UniProt Q8IDZ2) of the same molecule?
Answer: > 20 µM

Question: What about the IC50 (UniProt C0H5J9) of the same molecule?
Answer: > 20 µM

Question: What about the IC50 (UniProt Q8IDZ9) of the same molecule?
Answer: > 20 µM

Question: And the IC50 (UniProt C6KTC6)?
Answer: > 20 µM

Question: And the IC50 (UniProt Q8IL08)?
Answer: > 20 µM

Question: What about the IC50 (UniProt Q8IJ99) of the same molecule?
Answer: > 20 µM

Question: What about the IC50 (UniProt Q8IDB8) of the same molecule?
Answer: > 20 µM

Question: And the IC50 (UniProt Q8IBU2)?
Answer: > 20 µM

Question: And the IC50 (UniProt Q8I388)?
Answer: > 20 µM

Question: And the IC50 (UniProt Q8I5K4)?
Answer: > 20 µM

Question: What about the IC50 (UniProt Q8I5C6) of the same molecule?
Answer: > 20 µM

Question: And the IC50 (UniProt Q8IJZ9)?
Answer: > 20 µM

Question: And the IC50 (UniProt Q8ILW9)?
Answer: > 20 µM

Question: What about the IC50 (UniProt Q8I2V4) of the same molecule?
Answer: > 20 µM

Question: What about the IC50 (UniProt C0H570) of the same molecule?
Answer: > 20 µM

Question: And the IC50 (UniProt Q8I534)?
Answer: > 20 µM

Question: What about the IC50 (UniProt Q8IJE1) of the same molecule?
Answer: > 20 µM

Question: What about the IC50 (UniProt Q8IJW4) of the same molecule?
Answer: > 20 µM

Question: And the IC50 (UniProt Q8IIC9)?
Answer: > 20 µM

Question: And the IC50 (UniProt Q8IKH8)?
Answer: > 20 µM
